Laboratory results taken from PubChem BioAssay AID330 (DTP/NCI, 2004).
Where “and” joins values, the source holds several entries; their conditions need not be identical. Equal entries are not always repeated. Toxic doses and inconclusive results are not listed. Rule for the calls: active = survival T/C of 150% or more; inactive = T/C below 125% in these data.

Test system: P388 leukemia ip, CD2F1 mice, survival T/C
Test: NCI In Vivo Anticancer Drug Screen. Data for tumor model P388 Leukemia (intraperitoneal) in CD2F1 (CDF1) mice
Details: endpoint: median survival time, higher = longer survival
In short: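 Mice carrying the transplanted tumor received test compound or vehicle. Survival was recorded in each group, and the value is the treated-group measurement divided by that of the vehicle-treated control group.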

[1] = dose: 50.0 mg/kg/injection, schedule: Q01DX005 (ip), vehicle: Klucel (hydroxypropylcellulose) (HPC)
[2] = dose: 100.0 mg/kg/injection, schedule: Q01DX005 (ip), vehicle: Klucel (hydroxypropylcellulose) (HPC)
[3] = dose: 200.0 mg/kg/injection, schedule: Q01DX005 (ip), vehicle: Klucel (hydroxypropylcellulose) (HPC)
[4] = dose: 100.0 mg/kg/injection, schedule: Q04DX003 (ip), vehicle: saline with Tween-80
[5] = dose: 200.0 mg/kg/injection, schedule: Q04DX003 (ip), vehicle: saline with Tween-80
[6] = dose: 400.0 mg/kg/injection, schedule: Q04DX003 (ip), vehicle: saline with Tween-80
[7] = dose: 3.12 mg/kg/injection, schedule: Q01DX009 (ip), vehicle: Klucel (hydroxypropylcellulose) (HPC)
[8] = dose: 6.25 mg/kg/injection, schedule: Q01DX009 (ip), vehicle: Klucel (hydroxypropylcellulose) (HPC)
[9] = dose: 12.5 mg/kg/injection, schedule: Q01DX009 (ip), vehicle: Klucel (hydroxypropylcellulose) (HPC)

Measured: T/C

Nc1ncnc2nc(Br)[nH]c12
inactive: [1] 111 % of control | [2] 95 % of control | [3] 106 % of control

C[n+]1ccc(-c2cc[n+](C)cc2)cc1
inactive: dose: 0.39 mg/kg/injection, schedule: Q01DX009 (ip), vehicle: saline 98 % of control | dose: 0.78 mg/kg/injection, schedule: Q01DX009 (ip), vehicle: saline 109 % of control | dose: 1.56 mg/kg/injection, schedule: Q01DX009 (ip), vehicle: saline 103 % of control and 109 % of control | dose: 3.12 mg/kg/injection, schedule: Q01DX009 (ip), vehicle: saline 100 % of control and 89 % of control | dose: 6.25 mg/kg/injection, schedule: Q01DX009 (ip), vehicle: saline 87 % of control

O=c1[nH]c(=O)n(O)c2nc[nH]c12
inactive: dose: 12.5 mg/kg/injection, schedule: Q01DX009 (ip), vehicle: saline with Tween-80 90 % of control | dose: 25.0 mg/kg/injection, schedule: Q01DX009 (ip), vehicle: saline with Tween-80 100 % of control | dose: 50.0 mg/kg/injection, schedule: Q01DX009 (ip), vehicle: saline with Tween-80 90 % of control

CCCCCCC(Cn1ccnc1)c1ccc(Br)cc1 (centres undefined)
inactive: [4] 100 % of control | [5] 91 % of control

Cc1cc(=O)c(C(=O)NC(=O)c2ccccn2)c(C)o1
inactive: [1] 101 % of control | [2] 101 % of control | [3] 107 % of control

Cc1cc(=O)oc2c(CNC(C(=O)O)C(C)C)c(O)ccc12 (centres undefined)
inactive: dose: 60.0 mg/kg/injection, schedule: Q01DX005 (ip), vehicle: Klucel (hydroxypropylcellulose) (HPC) 91 % of control | dose: 120.0 mg/kg/injection, schedule: Q01DX005 (ip), vehicle: Klucel (hydroxypropylcellulose) (HPC) 91 % of control

CCC(C)C(NC(=O)OC(C)(C)C)C(=O)O (centres undefined)
inactive: [1] 103 % of control | [2] 100 % of control | [3] 100 % of control

O=c1[nH]cnc2cc(N3CCCCC3)c([N+](=O)[O-])cc12
inactive: [4] 102 % of control | [5] 94 % of control | [6] 94 % of control

C[Si](OC(=O)N(CCCl)CCCl)(c1ccccc1)c1ccccc1
inactive: [7] 103 % of control | [8] 106 % of control | [9] 113 % of control

CCOc1cc2c(cc1C(C)c1ccc(OC(C)C)cc1)OCO2 (centres undefined)
inactive: dose: 25.0 mg/kg/injection, schedule: Q01DX005 (ip), vehicle: saline with Tween-80 108 % of control | dose: 50.0 mg/kg/injection, schedule: Q01DX005 (ip), vehicle: saline with Tween-80 106 % of control | dose: 100.0 mg/kg/injection, schedule: Q01DX005 (ip), vehicle: saline with Tween-80 103 % of control | dose: 200.0 mg/kg/injection, schedule: Q01DX005 (ip), vehicle: saline with Tween-80 103 % of control

CN(C)CCOC(=O)C(C)(C)Sc1ccc(Cl)cc1
inactive: dose: 60.0 mg/kg/injection, schedule: Q01DX005 (ip), vehicle: saline with Tween-80 107 % of control | dose: 120.0 mg/kg/injection, schedule: Q01DX005 (ip), vehicle: saline with Tween-80 92 % of control | dose: 240.0 mg/kg/injection, schedule: Q01DX005 (ip), vehicle: saline with Tween-80 98 % of control

c1ccc(Cn2cccc/c2=N/C(=NC2CCCCC2)NC2CCCCC2)cc1
inactive: dose: 1.56 mg/kg/injection, schedule: Q01DX001 (ip), vehicle: Klucel (hydroxypropylcellulose) (HPC) 105 % of control | dose: 3.12 mg/kg/injection, schedule: Q01DX001 (ip), vehicle: Klucel (hydroxypropylcellulose) (HPC) 99 % of control | dose: 6.25 mg/kg/injection, schedule: Q01DX001 (ip), vehicle: Klucel (hydroxypropylcellulose) (HPC) 99 % of control | dose: 25.0 mg/kg/injection, schedule: Q01DX001 (ip), vehicle: Klucel (hydroxypropylcellulose) (HPC) 98 % of control

N#CN=[N+]([O-])c1ccccc1Br
inactive: [7] 98 % of control | [8] 100 % of control | dose: 6.25 mg/kg/injection, schedule: Q04DX003 (ip), vehicle: Klucel (hydroxypropylcellulose) (HPC) 100 % of control | [9] 114 % of control | dose: 12.5 mg/kg/injection, schedule: Q04DX003 (ip), vehicle: Klucel (hydroxypropylcellulose) (HPC) 91 % of control | dose: 25.0 mg/kg/injection, schedule: Q04DX003 (ip), vehicle: Klucel (hydroxypropylcellulose) (HPC) 87 % of control

O=C1CCCCCCCCC1O (centres undefined)
inactive: [4] 106 % of control | [5] 108 % of control | [6] 110 % of control

OCCNCCNCC[OH2+].OCCNCCNCC[OH2+].[Ni+2].[O-][Cl+3]([O-])([O-])[O-]
inactive: dose: 12.5 mg/kg/injection, schedule: Q01DX009 (ip), vehicle: saline 100 % of control | dose: 25.0 mg/kg/injection, schedule: Q01DX009 (ip), vehicle: saline 98 % of control
